Reference: patent US20080311189A1, “Compositions Comprising Organometallic Molybdenum Compounds For Treating Cancer” (priority 2004, published 2008)

Legend:
Format in all cases: cell-based
[1] = system: Ehrlich ascites mouse tumor cell line; experiment: MTT viability assay, Ehrlich ascites cells; settings: Ehrlich ascites mouse cancer cells, 3 hours incubation with drug, read 24 hours after removal of the drug
Experimental: (§1) The cytotoxic activity of theses complexes was evaluated against 6 different cell lines, using the MTT assay (3-(4,5-dimethylthiazol-2-yl)-2,5-diphenyltetrazolium bromide assay) (Mosmann, T. J. Immunol. Methods, 1983, 65, 55-63) to measure the cell viability.
(§2) Cell lines were routinely propagated in 75 cm^2 tissue culture flasks (SARSTEDT, Leicester, U.K.), in a humidified atmosphere of 5% CO2 in air at 37° C., and were trypsinized and harvested into new medium every 2-4 days, just before confluence. Cell lines were cultured for a minimum of two passages after thawing prior to experimentation.
The Ehrlich ascites mouse tumor cell line was purchased at ECACC (European Collection of Cell culture) and propagated in NCTC-135 medium (Sigma, ref. N3262) 2 mM in L-glutamine, supplemented with 10% heat-inactivated fetal bovine serum (FBS) and 1% penicillin/streptomycin.
(§3) This assay is based on the capacity of mitochondrial dehydrogenase enzymes in living cells to convert the yellow water soluble substrate (MTI) into a dark blue product which is quantified by spectrophotometric means. Briefly, exponentially growing cells were trypsinized, dispensed in sixplicates into 96-well tissue culture plates and allowed to attach overnight. The next day the cells were treated with various concentrations of the drug, ranging from 1 to 1000 μM. By addition of an adequate volume of a freshly prepared DMSO solution of the compound to the medium, the desired test concentrations were obtained. For. each test concentration and for the control which contained the corresponding amount of DMSO, 6 wells were used. After an incubation period of 3 hours the cells were carefully washed (twice) with phosphate buffer saline (PBS) and 100 μl of medium were added. The cells were incubated for 24 hours and 10 μl of a MTT solution (5 mg/ml) were added to each well. The tetrazolium/formazan reaction was allowed to proceed for 4 hours and the medium was carefully removed. The dark blue formazan crystals were dissolved by adding 150 μl of DMSO and agitating for 15 minutes in a plate shaker. The optical density was measured at […] using a 96-well multiscanner autoreader. The percentage of survival was calculated using the formula: % survival=live cell number [test]/live cell number [control]×100. The IC50 values were calculated by nonlinear regression analysis using the graphed Prism software (GraphPad Software, Inc., San Diego, Calif.) and are compiled in tables 2-4.
(§4) Using the colorimetric mitochondrial function-based MTT viability assay, we examined the effects of molybdenum (II) complexes against 6 different cell lines, by measuring the cellular proliferation at 8 different concentrations ranging from 1 to 1000 μM, 24 hours after removal of the drug. The IC50 values were calculated from dose-response curves obtained by nonlinear regression analysis. FIG. 4 represent and compare dose-response curves obtained for several molybdenum compounds against the Ehrlich ascites mouse cell line.

[2] = system: non-tumoral MRC-5 human fibroblast; experiment: MTT viability assay, non-tumoral human fibroblasts; settings: MRC-5 human fibroblasts, 3 hours incubation with drug, 24 hours after removal
Experimental: as §1, §2
The […] cells, secondary human lung fibroblasts, were purchased at ECACC. The cells were grown in MEM with Earls' Salt and L-glutamine (Gibco, ref. 61100-053), supplemented with 10% fetal bovine serum (FBS) and 1% neomycin.
as §3, §4

[3] = system: MKN45 gastric human cell line; experiment: MTT viability assay, MKN-45 cells; settings: 3 hours incubation with drug, 24 hours after removal, read-out: IC50 VALUE, Human tumoral cell lines, Gastric MKN-45
Experimental: as §1, §2
(§5) The tumoral MKN45 gastric and HT-29 colorectal human cell lines were purchased at ECACC. […]
(§6) This assay is based on the capacity of mitochondrial dehydrogenase enzymes in living cells to convert the yellow water soluble substrate (MTI) into a dark blue product which is quantified by spectrophotometric means. […] The optical density was measured at […] using a 96-well multiscanner autoreader. The percentage of survival was calculated using the formula: % survival=live cell number [test]/live cell number [control]×100. The IC50 values were calculated by nonlinear regression analysis using the graphed Prism software (GraphPad Software, Inc., San Diego, Calif.) and are compiled in tables 2-4. […]

[4] = system: GP-220 gastric human cell line; experiment: MTT viability assay, GP-220 cells; settings: 3 hours incubation with drug, 24 hours after removal, read-out: IC50 VALUE, Human tumoral cell lines, Gastric GP-220
Experimental: as §1, §2
(§7) The tumnoral GP-202 and GP-220 gastric human cell lines were established at IPATIMUP (Instituto de Patologia e Imunologia Molecular da Universidade do Porto). […]
as §6

[5] = system: HT-29 colorectal human cell line; experiment: MTT viability assay, HT-29 cells; settings: 3 hours incubation with drug, 24 hours after removal, read-out: IC50 VALUE, Human tumoral cell lines, Colon HT-29
Experimental: as §1, §2, §5, §6

[6] = system: GP-202 gastric human cell line; experiment: MTT viability assay, GP-202 cells; settings: 3 hours incubation with drug, 24 hours after removal, read-out: IC50 VALUE, Human tumoral cell lines, Gastric GP-202
Experimental: as §1, §2, §7, §6

Substance | IC50 [1] | IC50 [2] | IC50 [3] | IC50 [4] | IC50 [5] | IC50 [6]
(η^3-C3H5)Mo(CO)2(1,10-phen)Br [Compound 24] | 7.3 ± 1 µM | – | – | – | – | –
(η^3-C3H5)Mo(CO)2(2,3-Me2-p-tolilDAB)Br [Compound 23] | 59.1 ± 1.1 µM | 104 ± 1.1 µM | – | – | – | –
(η^3-C3H5)Mo(CO)2(4,7-diphenyl-1,10-phen)Br [Compound 25] | 12.5 ± 1.2 µM | 12.1 ± 1.1 µM | – | – | – | –
[(η^5-Cp)Mo(CO)2dppe]BF4 [Compound 21] | 20 ± 1.1 µM | 24 ± 1 µM | – | – | – | –
[(η^5-Cp)Mo(CO)2trithiane]BF4 [Compound 19] | 142.1 ± 1.1 µM | – | – | – | – | –
[(η^5-Cp)Mo(CO)2tten]BF4 [Compound 20] | 138.9 ± 1.2 µM | 139.8 ± 1.2 µM | – | – | – | –
[(η^5-Cp)Mo(CO)2{5,6-Ph2-3-(2-py)-1,2,4-Tz}]BF4 [Compound 22] | 105 ± 1.2 µM | 68.9 ± 1.1 µM | – | – | – | –
[(η^5-Ind)Mo(CO)2(1,4,7,10-tetrt)]BF4 [Compound 17] | 19.9 ± 1.1 µM | 213.5 ± 1.1 µM | – | – | – | –
[(η^5-Ind)Mo(CO)2(2,2′-biq)]BF4 [Compound 8] | 35 ± 1.1 µM | 13 ± 1 µM | 4.4 ± 1 µM | 2700 ± 1000 nM | 13.3 ± 1.1 µM | 5 ± 1.1 µM
[(η^5-Ind)Mo(CO)2(4,4′-Ph2-2,2′-bpy)]BF4 [Compound 2] | 13.7 ± 1.1 µM | – | – | – | – | –
[(η^5-Ind)Mo(CO)2(4,7-Me2-1,10-phen)]BF4 [Compound 7] | 29.5 ± 1 µM | 64.4 ± 1.1 µM | – | – | – | –
[(η^5-Ind)Mo(CO)2(4,7-Ph2-1,10-phen)]BF4 [Compound 6] | 5.7 ± 1 µM | 14.9 ± 1 µM | 4.6 ± 1.1 µM | 1800 ± 1100 nM | 6.6 ± 1 µM | 4.2 ± 1.1 µM
[(η^5-Ind)Mo(CO)2(CYDAB)]BF4 [Compound 4] | 140.3 ± 1.2 µM | 75 ± 1.1 µM | – | – | – | –
[(η^5-Ind)Mo(CO)2(NCMe)2]BF4 [Compound 18] | 56.7 ± 1.7 µM | – | – | – | – | –
[(η^5-Ind)Mo(CO)2(p-tolilDAB)]BF4 [Compound 3] | 6.6 ± 1 µM | 84.1 ± 1 µM | – | – | – | –
[(η^5-Ind)Mo(CO)2bpy]BF4 [Compound 1] | 95.9 ± 1.1 µM | 143.2 ± 1.1 µM | – | – | – | –
[(η^5-Ind)Mo(CO)2dppe]BF4 [Compound 14] | 5.8 ± 1.1 µM | 20.3 ± 1.1 µM | – | – | – | –
[(η^5-Ind)Mo(CO)2phen]BF4 [Compound 5] | 32.9 ± 1 µM | 73.3 ± 1.1 µM | – | – | – | –
[(η^5-Ind)Mo(CO)2trithiane]BF4 [Compound 15] | 20.7 ± 1 µM | 136.6 ± 1 µM | – | – | – | –
[(η^5-Ind)Mo(CO)2tten]BF4 [Compound 16] | 8.4 ± 1.1 µM | 91 ± 1.1 µM | – | – | – | –
[(η^5-Ind)Mo(CO)2{1,2-Ph(NH2)2}]BF4 [Compound 13] | 67.6 ± 1.2 µM | 73.7 ± 1.1 µM | – | – | – | –
[(η^5-Ind)Mo(CO)2{5,6-Ph2-3-(2-py)-1,2,4-Tz}]BF4 [Compound 9] | – | 13.4 ± 1 µM | – | – | – | –
